Experimental data taken from paper PMC12090182, “Repurposing of the RIPK1-Selective Benzo[1,4]oxazepin-4-one Scaffold for the Development of a Type III LIMK1/2 Inhibitor” (ACS Chemical Biology, 2025).
Like-named read-outs stand apart in the source and are kept apart here.

How the values were obtained:
FESA = FESA (Homo sapiens, UniProt P07332); experiment: DSF selectivity screening; assay type: binding; details: 10 μM compound
How it was run: (§1)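 Kinase domains at 2 μM are combined with 10 μM compound in 20 mM HEPES, pH 7.5, 500 mM NaCl. SYPRO Orange is added, temperature rises at 3 °C/min, and fluorescence is recorded. The transition midpoint comes from a Boltzmann fit.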

TIF1A = TIF1A (Homo sapiens, UniProt O15164); experiment: DSF selectivity screening; assay type: binding; details: 10 μM compound
How it was run: as §1

SRPK1A = SRPK1A (Homo sapiens, UniProt Q96SB4); experiment: DSF selectivity screening; assay type: binding; details: 10 μM compound
Sequence of SRPK1A (Q96SB4 whole entry): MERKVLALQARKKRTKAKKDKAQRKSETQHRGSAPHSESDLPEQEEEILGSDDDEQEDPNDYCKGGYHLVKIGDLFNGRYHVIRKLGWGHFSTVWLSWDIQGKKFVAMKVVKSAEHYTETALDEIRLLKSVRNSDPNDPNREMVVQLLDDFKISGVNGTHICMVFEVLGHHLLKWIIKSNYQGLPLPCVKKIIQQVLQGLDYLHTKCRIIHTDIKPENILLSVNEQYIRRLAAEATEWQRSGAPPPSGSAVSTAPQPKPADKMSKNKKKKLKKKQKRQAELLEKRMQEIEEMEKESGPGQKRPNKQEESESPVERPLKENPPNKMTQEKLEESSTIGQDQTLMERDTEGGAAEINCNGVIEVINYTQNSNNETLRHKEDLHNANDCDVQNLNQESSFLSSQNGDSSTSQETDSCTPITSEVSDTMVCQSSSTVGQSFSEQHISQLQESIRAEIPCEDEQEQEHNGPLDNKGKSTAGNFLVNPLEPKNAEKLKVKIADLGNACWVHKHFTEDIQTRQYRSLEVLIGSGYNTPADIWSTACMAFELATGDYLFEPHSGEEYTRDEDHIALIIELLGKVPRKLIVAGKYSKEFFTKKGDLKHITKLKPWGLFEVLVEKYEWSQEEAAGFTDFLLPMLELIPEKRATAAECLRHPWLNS
How it was run: as §1

WNK1A = WNK1A (Homo sapiens, UniProt Q9H4A3); experiment: DSF selectivity screening; assay type: binding; details: 10 μM compound
How it was run: as §1

CAMK2DA = CAMK2DA (Homo sapiens, UniProt Q13557); experiment: DSF selectivity screening; assay type: binding; details: 10 μM compound
How it was run: as §1

OSR1A = OSR1A (Homo sapiens, UniProt O95747); experiment: DSF selectivity screening; assay type: binding; details: 10 μM compound
How it was run: as §1

RPS6KA1A = experiment: DSF selectivity screening; assay type: binding; details: 10 μM compound
How it was run: as §1

MAPK8B = MAPK8B (Homo sapiens, UniProt P45983); experiment: DSF selectivity screening; assay type: binding; details: 10 μM compound
How it was run: as §1

STK17AA = STK17AA (Homo sapiens, UniProt Q9UEE5); experiment: DSF selectivity screening; assay type: binding; details: 10 μM compound
How it was run: as §1

MARK4A = MARK4A (Homo sapiens, UniProt Q96L34); experiment: DSF selectivity screening; assay type: binding; details: 10 μM compound
How it was run: as §1

BRAFA = BRAFA (Homo sapiens, UniProt P15056); experiment: DSF selectivity screening; assay type: binding; details: 10 μM compound
How it was run: as §1

MELKA = MELKA (Homo sapiens, UniProt Q14680); experiment: DSF selectivity screening; assay type: binding; details: 10 μM compound
How it was run: as §1

MAPK14A = MAPK14A (Homo sapiens, UniProt Q16539); experiment: DSF selectivity screening; assay type: binding; details: 10 μM compound
How it was run: as §1

MAP2K1A = MAP2K1A (Homo sapiens, UniProt Q02750); experiment: DSF selectivity screening; assay type: binding; details: 10 μM compound
Sequence of MAP2K1A (Q02750 68-361): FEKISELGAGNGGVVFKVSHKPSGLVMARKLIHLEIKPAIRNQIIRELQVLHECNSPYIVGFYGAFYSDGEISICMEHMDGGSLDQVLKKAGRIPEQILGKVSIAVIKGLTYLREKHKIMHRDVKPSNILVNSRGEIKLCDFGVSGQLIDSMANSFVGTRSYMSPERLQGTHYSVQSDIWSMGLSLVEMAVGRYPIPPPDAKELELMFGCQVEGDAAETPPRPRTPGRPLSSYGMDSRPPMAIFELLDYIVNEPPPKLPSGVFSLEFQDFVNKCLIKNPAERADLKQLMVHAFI
How it was run: as §1

AKT3A = AKT3A (Homo sapiens, UniProt Q9Y243); experiment: DSF selectivity screening; assay type: binding; details: 10 μM compound
How it was run: as §1

DMPKA = DMPKA (Homo sapiens, UniProt Q09013); experiment: DSF selectivity screening; assay type: binding; details: 10 μM compound
How it was run: as §1

MAP2K6A = MAP2K6A (Homo sapiens, UniProt P52564); experiment: DSF selectivity screening; assay type: binding; details: 10 μM compound
How it was run: as §1

CHEK2A = CHEK2A (Homo sapiens, UniProt O96017); experiment: DSF selectivity screening; assay type: binding; details: 10 μM compound
Sequence of CHEK2A (O96017 210-531): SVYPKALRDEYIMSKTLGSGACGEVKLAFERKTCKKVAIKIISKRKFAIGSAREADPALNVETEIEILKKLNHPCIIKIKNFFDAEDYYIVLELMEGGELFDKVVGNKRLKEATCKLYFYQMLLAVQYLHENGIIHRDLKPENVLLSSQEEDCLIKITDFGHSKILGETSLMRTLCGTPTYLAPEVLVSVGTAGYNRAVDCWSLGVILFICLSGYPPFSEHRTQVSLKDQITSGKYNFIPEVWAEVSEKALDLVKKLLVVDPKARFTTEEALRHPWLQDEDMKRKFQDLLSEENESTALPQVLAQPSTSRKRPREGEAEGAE
How it was run: as §1

EPHA5A = EPHA5A (Homo sapiens, UniProt P54756); experiment: DSF selectivity screening; assay type: binding; details: 10 μM compound
How it was run: as §1

TOPKA = TOPKA (Homo sapiens, UniProt Q96KB5); experiment: DSF selectivity screening; assay type: binding; details: 10 μM compound
How it was run: as §1

DCAMKL1A = DCAMKL1A (Homo sapiens, UniProt O15075); experiment: DSF selectivity screening; assay type: binding; details: 10 μM compound
How it was run: as §1

MST4A = MST4A (Homo sapiens, UniProt Q9P289); experiment: DSF selectivity screening; assay type: binding; details: 10 μM compound
How it was run: as §1

GSG2A = GSG2A (Homo sapiens, UniProt Q8TF76); experiment: DSF selectivity screening; assay type: binding; details: 10 μM compound
How it was run: as §1

CDC42BPAA = experiment: DSF selectivity screening; assay type: binding; details: 10 μM compound
How it was run: as §1

GAKA = GAKA (Homo sapiens, UniProt O14976); experiment: DSF selectivity screening; assay type: binding; details: 10 μM compound
How it was run: as §1

[1] = biological target: EGFR(L747-E749del, A750P) (Homo sapiens, UniProt P00533, A750P/DEL747-749); experiment: biochemical; assay type: binding; details: read-out: Percent Control
[2] = biological target: ABL1(Y253F)-phosphorylated (Homo sapiens, UniProt P00519, Y253F); experiment: biochemical; assay type: binding; details: read-out: Percent Control
[3] = biological target: ABL1(F317I)-phosphorylated (Homo sapiens, UniProt P00519, F317I); experiment: biochemical; assay type: binding; details: compound concentration 100 nM; Entrez ABL1; read-out: Percent Control
LRRK2(G2019S) = LRRK2(G2019S) (Homo sapiens, UniProt Q5S007, G2019S); experiment: biochemical; assay type: binding; details: read-out: Percent Control
Sequence of LRRK2(G2019S) (Q5S007 whole entry G2019S): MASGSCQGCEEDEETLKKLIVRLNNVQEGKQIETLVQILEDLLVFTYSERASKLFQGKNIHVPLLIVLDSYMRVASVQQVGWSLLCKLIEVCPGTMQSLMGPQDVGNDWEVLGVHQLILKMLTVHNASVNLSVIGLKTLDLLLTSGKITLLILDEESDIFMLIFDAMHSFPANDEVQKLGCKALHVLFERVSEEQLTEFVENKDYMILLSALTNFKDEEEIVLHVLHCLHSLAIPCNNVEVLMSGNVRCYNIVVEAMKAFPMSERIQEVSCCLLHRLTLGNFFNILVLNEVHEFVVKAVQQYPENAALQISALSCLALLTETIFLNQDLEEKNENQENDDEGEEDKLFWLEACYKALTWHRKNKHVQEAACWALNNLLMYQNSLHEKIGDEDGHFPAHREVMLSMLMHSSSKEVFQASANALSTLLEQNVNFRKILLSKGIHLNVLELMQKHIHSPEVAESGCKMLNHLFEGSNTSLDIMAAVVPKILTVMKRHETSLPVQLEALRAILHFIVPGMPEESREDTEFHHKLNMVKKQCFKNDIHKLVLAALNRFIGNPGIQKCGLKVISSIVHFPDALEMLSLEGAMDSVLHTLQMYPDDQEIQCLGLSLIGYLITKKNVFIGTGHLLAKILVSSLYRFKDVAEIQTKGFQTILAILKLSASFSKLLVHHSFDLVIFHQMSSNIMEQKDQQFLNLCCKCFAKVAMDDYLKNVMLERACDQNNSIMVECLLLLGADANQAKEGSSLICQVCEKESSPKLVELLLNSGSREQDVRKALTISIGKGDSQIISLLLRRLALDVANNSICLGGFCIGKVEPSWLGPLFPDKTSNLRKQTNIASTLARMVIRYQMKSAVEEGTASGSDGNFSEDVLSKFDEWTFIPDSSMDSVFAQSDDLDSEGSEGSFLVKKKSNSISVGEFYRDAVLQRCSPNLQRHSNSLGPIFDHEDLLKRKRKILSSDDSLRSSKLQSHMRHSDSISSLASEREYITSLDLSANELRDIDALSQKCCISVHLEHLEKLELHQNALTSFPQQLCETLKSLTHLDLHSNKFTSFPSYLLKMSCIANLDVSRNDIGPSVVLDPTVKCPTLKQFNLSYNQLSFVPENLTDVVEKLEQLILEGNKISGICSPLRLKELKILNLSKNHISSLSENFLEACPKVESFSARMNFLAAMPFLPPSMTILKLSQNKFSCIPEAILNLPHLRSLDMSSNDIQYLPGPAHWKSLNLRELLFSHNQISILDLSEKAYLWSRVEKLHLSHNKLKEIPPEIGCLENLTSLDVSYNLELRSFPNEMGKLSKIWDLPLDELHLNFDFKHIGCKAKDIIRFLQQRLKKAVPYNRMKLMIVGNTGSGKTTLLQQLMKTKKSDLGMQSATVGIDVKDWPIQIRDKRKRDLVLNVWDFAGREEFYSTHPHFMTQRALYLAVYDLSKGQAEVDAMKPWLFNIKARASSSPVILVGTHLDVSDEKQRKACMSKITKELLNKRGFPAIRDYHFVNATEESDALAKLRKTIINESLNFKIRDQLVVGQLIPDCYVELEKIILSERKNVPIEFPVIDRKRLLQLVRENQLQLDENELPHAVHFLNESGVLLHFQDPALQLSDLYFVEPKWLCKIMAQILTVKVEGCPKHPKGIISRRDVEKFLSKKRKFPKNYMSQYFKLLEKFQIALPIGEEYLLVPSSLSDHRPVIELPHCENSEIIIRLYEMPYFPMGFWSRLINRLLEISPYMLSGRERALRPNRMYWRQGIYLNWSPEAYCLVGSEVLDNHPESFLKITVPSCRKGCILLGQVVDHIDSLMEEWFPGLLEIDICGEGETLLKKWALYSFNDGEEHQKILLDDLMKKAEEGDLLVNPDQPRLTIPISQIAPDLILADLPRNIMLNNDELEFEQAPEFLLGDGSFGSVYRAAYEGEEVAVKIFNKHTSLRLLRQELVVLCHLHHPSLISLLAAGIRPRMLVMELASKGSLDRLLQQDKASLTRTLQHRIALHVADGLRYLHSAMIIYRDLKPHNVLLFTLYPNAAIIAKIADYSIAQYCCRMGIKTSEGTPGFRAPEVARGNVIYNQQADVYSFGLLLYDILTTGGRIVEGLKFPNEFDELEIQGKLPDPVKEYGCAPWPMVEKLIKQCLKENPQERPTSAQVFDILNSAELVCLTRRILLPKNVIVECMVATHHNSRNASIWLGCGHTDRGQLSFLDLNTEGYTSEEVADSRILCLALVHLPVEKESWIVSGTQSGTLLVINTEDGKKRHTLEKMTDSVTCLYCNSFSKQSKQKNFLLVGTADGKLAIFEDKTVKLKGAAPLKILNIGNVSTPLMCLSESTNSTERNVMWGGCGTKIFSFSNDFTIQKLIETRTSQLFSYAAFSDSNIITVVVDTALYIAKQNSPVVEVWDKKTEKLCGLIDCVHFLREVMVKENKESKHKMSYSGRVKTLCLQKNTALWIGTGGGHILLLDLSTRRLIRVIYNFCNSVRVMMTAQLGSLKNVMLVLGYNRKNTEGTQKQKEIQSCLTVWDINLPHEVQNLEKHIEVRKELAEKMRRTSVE

PIK3CA(Q546K) = PIK3CA(Q546K) (Homo sapiens, UniProt P42336, Q546K); experiment: biochemical; assay type: binding; details: read-out: Percent Control
FLT3(D835H) = FLT3(D835H) (Homo sapiens, UniProt P36888, D835H); experiment: biochemical; assay type: binding; details: 1000 nM, read-out: Percent Control
BRPF1A = BRPF1A (Homo sapiens, UniProt P55201); experiment: DSF selectivity screening; assay type: binding; details: 10 μM compound
Sequence of BRPF1A (P55201 other isoform, or with tags, fused parts or gaps): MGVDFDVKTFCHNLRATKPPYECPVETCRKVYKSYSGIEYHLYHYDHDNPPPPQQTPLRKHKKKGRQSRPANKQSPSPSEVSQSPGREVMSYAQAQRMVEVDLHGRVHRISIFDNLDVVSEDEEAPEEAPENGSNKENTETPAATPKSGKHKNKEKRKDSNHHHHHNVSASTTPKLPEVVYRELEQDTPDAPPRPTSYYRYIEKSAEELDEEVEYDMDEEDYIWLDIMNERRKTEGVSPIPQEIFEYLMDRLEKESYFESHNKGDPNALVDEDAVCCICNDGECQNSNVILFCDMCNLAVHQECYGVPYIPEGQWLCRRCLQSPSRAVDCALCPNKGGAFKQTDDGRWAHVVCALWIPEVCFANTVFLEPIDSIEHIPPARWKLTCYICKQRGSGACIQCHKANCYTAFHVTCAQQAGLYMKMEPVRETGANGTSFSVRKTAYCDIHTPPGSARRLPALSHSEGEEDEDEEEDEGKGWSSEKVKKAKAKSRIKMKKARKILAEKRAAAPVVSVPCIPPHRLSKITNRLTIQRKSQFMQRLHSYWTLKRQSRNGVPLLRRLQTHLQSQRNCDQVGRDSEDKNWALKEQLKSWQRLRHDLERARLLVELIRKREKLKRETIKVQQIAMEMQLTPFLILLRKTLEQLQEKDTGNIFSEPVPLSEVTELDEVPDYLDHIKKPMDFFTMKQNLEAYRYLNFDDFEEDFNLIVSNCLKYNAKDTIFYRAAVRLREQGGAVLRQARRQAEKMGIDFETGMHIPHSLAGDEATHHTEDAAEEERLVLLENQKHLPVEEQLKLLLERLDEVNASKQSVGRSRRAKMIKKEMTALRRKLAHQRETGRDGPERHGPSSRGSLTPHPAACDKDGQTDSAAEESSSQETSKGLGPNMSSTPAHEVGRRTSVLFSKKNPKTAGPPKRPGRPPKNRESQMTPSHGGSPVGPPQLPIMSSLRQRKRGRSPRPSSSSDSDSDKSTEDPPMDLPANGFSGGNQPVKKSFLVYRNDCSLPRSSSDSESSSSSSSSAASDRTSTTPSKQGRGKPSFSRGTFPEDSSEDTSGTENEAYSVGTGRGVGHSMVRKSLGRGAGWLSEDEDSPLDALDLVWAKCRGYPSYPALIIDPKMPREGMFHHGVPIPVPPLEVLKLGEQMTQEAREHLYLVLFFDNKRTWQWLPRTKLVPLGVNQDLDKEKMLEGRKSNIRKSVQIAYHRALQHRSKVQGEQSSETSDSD

[4] = Pharmacokinetic screening in mice (IV and PO, cassette dosing); assay type: in vivo, mouse; details: plasma
Method: Test compounds were administered intravenously (0.1 mg mL^–1/kg) or orally (1 mg/5 mL/kg) by cassette dosing to nonfasted mice. After administration, blood samples were collected and centrifuged to obtain the plasma fraction. The plasma samples were deproteinized followed by centrifugation. The compound concentrations in the supernatant were analyzed by LC/MS/MS.

KIT(D816H) = KIT(D816H) (Homo sapiens, UniProt P10721, D816H); experiment: biochemical; assay type: binding; details: 1000 nM, read-out: Percent Control

SMILES: CN1C(=O)[C@@H](N2CCc3c(nn(Cc4ccccc4)c3C(N)=O)C2=O)COc2cc(Cl)ccc21 [Compound 10, (S)-2-benzyl-6-(8-chloro-5-methyl-4-oxo-2,3,4,5-tetrahydrobenzo[b][1,4]oxazepin-3-yl)-7-oxo-4,5,6,7-tetrahydro-2H-pyrazolo[3,4-c]pyridine-3-carboxamide]
- ΔTm at 10 µM (FESA): 0.1 °C
- ΔTm at 10 µM (TIF1A): 0.2 °C
- ΔTm at 10 µM (SRPK1A): 0 °C
- ΔTm at 10 µM (WNK1A): 0.4 °C
- ΔTm at 10 µM (CAMK2DA): 0.4 °C
- ΔTm at 10 µM (OSR1A): 0.4 °C
- ΔTM (RPS6KA1A): 0 K
- ΔTm at 10 µM (MAPK8B): 0.1 °C
- ΔTm at 10 µM (STK17AA): 0 °C
- ΔTm at 10 µM (MARK4A): -1.9 °C
- ΔTm at 10 µM (BRAFA): 0.1 °C
- ΔTm at 10 µM (MELKA): 0.1 °C
- ΔTm at 10 µM (MAPK14A): 0.1 °C
- ΔTm at 10 µM (MAP2K1A): 0.1 °C
- ΔTm at 10 µM (AKT3A): 0 °C
- ΔTm at 10 µM (DMPKA): 0.1 °C
- ΔTm at 10 µM (MAP2K6A): 0.1 °C
- ΔTm at 10 µM (CHEK2A): -0.1 °C
- ΔTm at 10 µM (EPHA5A): 0 °C
- ΔTm at 10 µM (TOPKA): -0.1 °C
- ΔTm at 10 µM (DCAMKL1A): 0 °C
- ΔTm at 10 µM (MST4A): -0.1 °C
- ΔTm at 10 µM (GSG2A): 0.2 °C
- ΔTM (CDC42BPAA): -0.1 K
- ΔTm at 10 µM (GAKA): 0 °C
- remaining activity at 1 µM [1]: 100%
- remaining activity at 1 µM [2]: 85%
- remaining activity at 0.1 µM [3]: 91%
- remaining activity at 1 µM (LRRK2(G2019S)): 86%
- remaining activity at 1 µM (PIK3CA(Q546K)): 97%
- remaining activity at 1 µM (FLT3(D835H)): 100%
- ΔTm at 10 µM (BRPF1A): -0.8 °C
- AUC ([4]; 0.1 mg/kg, Mouse PK IV, 0.10 mg/kg, read-out: AUCiv): 94.7 ng·h/mL
- concentration at 5 min ([4]; 0.1 mg/kg, Mouse PK IV, 0.10 mg/kg, read-out: C5min): 44.5 ng/mL
- Cmax ([4]; Mouse PK PO, 1.0 mg/kg): 11.8 ng/mL
- Tmax ([4]; Mouse PK PO, 1.0 mg/kg): 30 min
- AUC ([4]; Mouse PK PO, 1.0 mg/kg, read-out: AUCpo): 30.9 ng·h/mL
- bioavailability ([4]; mouse, PO 1.0 mg/kg vs IV 0.10 mg/kg): 4%
- remaining activity at 1 µM (KIT(D816H)): 97%
